Reference: ChEMBL document CHEMBL1201862, “PubChem BioAssay data set” (2004)
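The compound was tested at five concentrations on cells cultured in 96-well plates, with a 48-hour exposure period. Abbreviation: GI50, concentration required for 50% inhibition of growth.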 Activity calls are given as the source filed them. Cut-off read from the data, not from the text of the source: active = GI50 up to about 1.1 µM and inactive = higher.

What was measured:
Assay in all cases: NCI anticancer screen, dose series, 48 h
[1] = tested on: SNB-75
[2] = tested on: 786-0
[3] = tested on: HL-60
[4] = tested on: SR
[5] = tested on: HOP-18
[6] = tested on: K562
[7] = tested on: SW-620
[8] = tested on: SK-MEL-28
[9] = tested on: OVCAR-3
[10] = tested on: HT-29
[11] = tested on: ACHN
[12] = tested on: RXF 393
[13] = tested on: A549
[14] = tested on: COLO 205
[15] = tested on: OVCAR-8
[16] = tested on: HOP-62
[17] = tested on: MDA-MB-435
[18] = tested on: BT-549
[19] = tested on: MDA-MB-231

| SMILES | GI50 [1] | GI50 [2] | GI50 [3] | GI50 [4] | GI50 [5] | GI50 [6] | GI50 [7] | GI50 [8] | GI50 [9] | GI50 [10] | GI50 [11] | GI50 [12] | GI50 [13] | GI50 [14] | GI50 [15] | GI50 [16] | GI50 [17] | GI50 [18] | GI50 [19] |
| --- | --- | --- | --- | --- | --- | --- | --- | --- | --- | --- | --- | --- | --- | --- | --- | --- | --- | --- | --- |
| CC1(C)CC(=O)C2=C(C1)S/C(=C1/SC3=C(S1)C(=O)CC(C)(C)C3)S2 | > 251 µM (inactive) | > 251 µM (inactive) | > 251 µM (inactive) | > 251 µM (inactive) | > 251 µM (inactive) | > 251 µM (inactive) | > 251 µM (inactive) | > 251 µM (inactive) | > 251 µM (inactive) | > 251 µM (inactive) | > 251 µM (inactive) | > 251 µM (inactive) | > 251 µM (inactive) | > 251 µM (inactive) | > 251 µM (inactive) | > 251 µM (inactive) |  |  |  |
| O=C(/C=C/c1cc(Cl)cc(Cl)c1O)c1cccc(O)c1 | 36 µM (inactive) | 70.5 µM (inactive) | 29.1 µM (inactive) | 25.5 µM (inactive) | 31 µM (inactive) | 33.4 µM (inactive) | 54.5 µM (inactive) | 43.5 µM (inactive) | 28.4 µM (inactive) | 93.8 µM (inactive) | > 100 µM (inactive) | > 100 µM (inactive) | > 100 µM (inactive) | 18.6 µM (inactive) | 32.1 µM (inactive) | 74 µM (inactive) |  |  |  |
| CN(C)C(=S)Nc1nnc(Nc2ccccc2)s1 | > 100 µM (inactive) | > 100 µM (inactive) | > 100 µM (inactive) | > 100 µM (inactive) | > 100 µM (inactive) | > 100 µM (inactive) | > 100 µM (inactive) | > 100 µM (inactive) | > 100 µM (inactive) | > 100 µM (inactive) | > 100 µM (inactive) | > 100 µM (inactive) | > 100 µM (inactive) | > 100 µM (inactive) | > 100 µM (inactive) | > 100 µM (inactive) |  |  |  |
| C1OC1CO[C@@H]1CO[C@H]2[C@@H]1OC[C@H]2OCC1CO1 (some centres undefined) | > 100 µM (inactive) | > 100 µM (inactive) | 82.8 µM (inactive) | 89.5 µM (inactive) | > 100 µM (inactive) | > 100 µM (inactive) | > 100 µM (inactive) | > 100 µM (inactive) | > 100 µM (inactive) | > 100 µM (inactive) | 73.1 µM (inactive) | > 100 µM (inactive) | > 100 µM (inactive) | > 100 µM (inactive) | > 100 µM (inactive) | > 100 µM (inactive) |  |  |  |
| Nc1nc2ncn(CC(O)CO)c2c(=S)[nH]1 (centres undefined) | > 100 µM (inactive) | > 100 µM (inactive) | > 100 µM (inactive) | > 100 µM (inactive) | > 100 µM (inactive) | > 100 µM (inactive) | > 100 µM (inactive) | > 100 µM (inactive) | > 100 µM (inactive) | > 100 µM (inactive) | > 100 µM (inactive) | > 100 µM (inactive) | > 100 µM (inactive) | > 100 µM (inactive) | > 100 µM (inactive) | > 100 µM (inactive) |  |  |  |
| CCOc1ccc(N2C(=O)/C(=C/c3ccc(N(CCC#N)CCC#N)cc3)N=C2c2cc([N+](=O)[O-])ccc2Cl)cc1 | 30.3 µM (inactive) | 12.4 µM (inactive) | 47.6 µM (inactive) |  | > 100 µM (inactive) | 21.3 µM (inactive) | 23 µM (inactive) | 7.67 µM (inactive) | 17.7 µM (inactive) |  | 49.9 µM (inactive) | 12.2 µM (inactive) | 45 µM (inactive) | 17.6 µM (inactive) | 35.3 µM (inactive) | 73.1 µM (inactive) |  |  |  |
| COc1ccc(C2S/C(=C\c3ccc([N+](=O)[O-])cc3)C(=O)N2NC(=O)Cc2ccccc2)cc1 (centres undefined) | 53.8 µM (inactive) | > 100 µM (inactive) | 92.9 µM (inactive) | > 100 µM (inactive) | > 100 µM (inactive) | > 100 µM (inactive) | > 100 µM (inactive) | > 100 µM (inactive) |  | > 100 µM (inactive) | > 100 µM (inactive) | 25.6 µM (inactive) | > 100 µM (inactive) | > 100 µM (inactive) | > 100 µM (inactive) | > 100 µM (inactive) |  |  |  |
| O=C(/C=C/c1ccc(OCCCCCCCCCCOc2ccc(/C=C/C(=O)c3ccc(Cl)cc3)cc2)cc1)c1ccc(Cl)cc1 | > 100 µM (inactive) | > 100 µM (inactive) | > 100 µM (inactive) |  | > 100 µM (inactive) | > 100 µM (inactive) | > 100 µM (inactive) | > 100 µM (inactive) | > 100 µM (inactive) | > 100 µM (inactive) | > 100 µM (inactive) | > 100 µM (inactive) | > 100 µM (inactive) | > 100 µM (inactive) | > 100 µM (inactive) | > 100 µM (inactive) |  |  |  |
| O=C(c1ccc(Cl)cc1)C1OC12C(=O)Nc1ccccc12 (centres undefined) | 17.1 µM (inactive) | 11.7 µM (inactive) | 0.349 µM (active) | 0.731 µM (active) | 13.9 µM (inactive) | 0.658 µM (active) | 3.52 µM (inactive) | 15.2 µM (inactive) | 24.6 µM (inactive) | 8.51 µM (inactive) | 15.1 µM (inactive) | 15.4 µM (inactive) | 23.9 µM (inactive) | 2.86 µM (inactive) | 12.1 µM (inactive) | 35.1 µM (inactive) | 16.9 µM (inactive) | 6.93 µM (inactive) | 21 µM (inactive) |
| O=C1N[C@@H](O)[C@@H]2ON=C(c3ccccc3)[C@H]12 | > 100 µM (inactive) | > 100 µM (inactive) | > 100 µM (inactive) | > 100 µM (inactive) | > 100 µM (inactive) | > 100 µM (inactive) | > 100 µM (inactive) | > 100 µM (inactive) | > 100 µM (inactive) | > 100 µM (inactive) | > 100 µM (inactive) | > 100 µM (inactive) | > 100 µM (inactive) | > 100 µM (inactive) | > 100 µM (inactive) | > 100 µM (inactive) |  |  |  |
| c1ccc(SC23C4C5C6C4C2C6C53)nc1 (centres undefined) | > 77.4 µM (inactive) | > 100 µM (inactive) | 11.5 µM (inactive) | > 19.6 µM (inactive) | 4.86 µM (inactive) | > 100 µM (inactive) | > 100 µM (inactive) | > 100 µM (inactive) | > 100 µM (inactive) | > 100 µM (inactive) | > 100 µM (inactive) |  | > 100 µM (inactive) | > 100 µM (inactive) | > 100 µM (inactive) | > 100 µM (inactive) |  |  |  |
